Tests used:
[1] = test system: SK-N-MC cells; test: MTT cellular proliferation assay, SK-N-MC neuroepithelioma cells; format: cell-based, human; details: for Therapeutic index SK-N-MC: IC50 of MRC-5 cells/IC50 of SK-N-MC cells, 72 h/37 °C; for IC50: SK-N-MC, 37 °C, MTT, mean ± SD (3 experiments)
Description: (§1) The anti-proliferative activity of Dp4e4mT relative to its complexes with Fe(III), Co(III), Ni(II), Cu(II), Zn(II), Ga(III), and Pd(II) was examined over incubation periods of 24-, 48-, and 72 h/37 °C (Table 2). These studies were performed using human SK-N-MC neuroepithelioma and AsPC-1 pancreatic adenocarcinoma cells that we have previously examined to assay other ligands.[15,28,43] […]
(§2) All cell lines were procured from the American Type Culture Collection (ATCC; Manassas, VA). The SK-N-MC neuroepithelioma cell line and the mortal MRC-5 fibroblasts were cultured in minimum essential medium (Sigma-Aldrich), while the AsPC-1 cell line was cultured in Roswell Park Memorial Institute 1640 medium (Thermo Fisher Scientific, MA, USA). Both media were supplemented with 10% fetal calf serum, non-essential amino acids (1 mM), sodium pyruvate (1 mM), L-glutamine (2 mM), penicillin (100 U/mL), streptomycin (100 U/mL), and Fungizone (0.5 µg/mL). Cells were maintained at 37 °C in an incubator under a humidified atmosphere with 5% CO 2, following established protocols. 11 Cellular Proliferation Assay
(§3) Cellular proliferation was evaluated through the established 3-(4,5-dimethylthiazol-2-yl)-2,5-diphenyltetrazolium bromide (MTT) proliferation assay, validated by viable cell counts.12 […]
(§4) Ligands and complexes were dissolved in DMSO to make a stock solution of 10 mM, subsequently diluted in culture media. For cell culture experiments, the DMSO's maximum concentration remained below 0.5% (v/v), with no discernible impact on proliferation.12 MTT […]
(§5) Trypan blue staining.12 Analysis of the data was executed employing MARS Data Analysis Software (BMG LabTech; version 3.30). The concentration of agents necessary to inhibit cellular proliferation by 50% (IC 50) was then calculated. […]

[2] = test system: AsPC-1 cells; test: MTT cellular proliferation assay, AsPC-1 pancreatic adenocarcinoma cells; format: cell-based, human; details: for IC50: 37 °C, MTT, mean ± SD (3 experiments); for Therapeutic index AsPC-1: IC50 of MRC-5 cells/IC50 of AsPC-1 cells, 72 h/37 °C
Description: as §1, §2, §3, §4, §5

[3] = test system: H2DCF; test: Redox activity: H2DCF oxidation to DCF (cell-free, L-cysteine/H2O2); format: biochemical; details: 10 μM complex + CuCl2, pH 7.4 and pH 5
Description: Redox activity in cells was examined using an established in vitro method examining 2′,7′-dichlorodihydrofluorescein (H2DCF) oxidation to fluorescent 2′,7′-dichlorofluorescein (DCF) at cytosolic pH (pH 7.4 using HBSS buffer) relative to lysosomal pH (pH 5; acetate buffer; Fig. 5).[25,26,28,42,46] To these buffers containing the complexes, L-cysteine (100 μM) was added as a reducing agent, followed by H2DCF (5 μM). Then, hydrogen peroxide (H2O2; 100 μM) was added to initiate hydroxyl radical generation. Both [Cu(DpC)Cl2] and [Cu(DpC)2] were used as positive controls due to their documented redox activity.[28,42] In contrast, the ligand, DpC, was implemented as a negative control, as it is redox inert.[28,42] As an additional control, the established Cu chelator, tetrathiomolybdate (TM), was utilized to remove Cu from the thiosemicarbazone complexes to indicate its role in their redox activity.[27,28,42] Additionally, UV-vis spectroscopy (300–700 nm) of the same solution for each complex was also performed to understand both the oxidation of H2DCF and the formation of fluorescent DCF upon excitation at 503 nm (Fig. S20A–F and S21A–F ^†). […]
ROS Generation Analysis with H 2DCF-DA
The generation of reactive oxygen species (ROS) was assessed by examining the oxidation of H2DCF.2, 8, 13, 14 Solutions containing CuCl2, TM, DpC, Dp4e4mT, [Fe(DpC)2]+, [Cu(DpC)Cl2], [Cu(DpC)2] and the Dp4e4mT complexes were prepared at a concentration of 10 µM in either HBSS (pH 7.4) or 150 mM acetate buffer (pH 5) to simulate the conditions of the cytosol and lysosome, respectively.2, 8, 14, 15 The H2DCF was prepared by deacetylation of DCFH-DA (Sigma-Aldrich) through alkaline hydrolysis using NaOH. 16
In these prepared solutions, L-cysteine (100 µM) was added as a reducing agent and then H2DCF (5 µM) added. The initiation of hydroxyl radical generation was achieved by the addition of hydrogen peroxide (H2O2; 100 µM). As a comparative benchmark, HBSS or acetate buffer containing L-cysteine, H2DCF, and H2O2, but lacking ligands or metal complexes, was employed as a control. Fluorescence measurements were carried out using a CLARIOstar Plus microplate reader (BMG LABTECH, Australia) with an excitation wavelength of 485 nm and an emission wavelength of 530 nm. 8, 14

[4] = Transmetallation kinetics with FeCl3 in DMSO (time-resolved UV-vis); format: physicochemical; details: for Observed pseudo first order rate constant kobs, FeCl3: 10-fold excess of FeCl3 in DMSO, 25 °C
Description: The capacity of the Fe(III), Ni(II), Co(III), Zn(II), Ga(III), and Pd(II) complexes of Dp4e4mT to transmetallate with Cu(II) and/or Fe(III) to result in redox active Cu(II) and Fe(III) complexes could be critical in understanding their anti-proliferative efficacy, redox activity, and ability to oxidize oxy-Mb and oxy-Hb. To examine this, LC-MS spectrometry was performed in DMSO after the addition of 1 equivalent of FeCl3 or Cu(OAc)2 and the solutions then incubated for 24 h/20 °C due to slow reaction kinetics. This solution was then diluted 1 : 1 in methanol and LC-MS performed using a mobile phase consisting of 90% MeOH, 9.9% water, and 0.1% formic acid (Fig. S2–S9 ^†). These investigations were supported by EPR studies in DMSO after the addition of 1 equivalent of FeCl3 or Cu(OAc)2 incubated under the same conditions (Fig. 3A–G). As a third method to investigate transmetallation, kinetic studies using time-resolved UV-vis spectroscopy were performed under pseudo-first order conditions with a 10-fold excess of FeCl3 or Cu(OAc)2 in DMSO (Fig. S11–S16 ^†). The pseudo-first order rate constants were calculated from the time-dependent UV-vis spectroscopy data (at all wavelengths) with Reactlab Kinetics[49] and collected in Table S2. ^† […]
Time-dependent UV-Vis absorption spectra were measured on an Agilent 8453 diode array UV−Vis spectrophotometer, equipped with a thermostatted (± 0.1 °C) multicell transport cooled by a Huber Ministat 230 recirculating cooling bath. Spectral analysis was carried out with Reactlab Kinetics. 10 […]
Table S2. Observed pseudo first order rate constants (k obs, s−1) for reactions of each Dp4e4mT complex with a 10-fold excess of Cu(OAc) 2 or FeCl 3 in DMSO or water (pH 7.4 or 5.0) at 25 °C. […]
[Co(Dp4e4mT)2]+ No reaction No reaction No reaction No reaction […]
a Reaction could not be deciphered by UV-Vis spectroscopy; bchlorido ligand hydrolysis

| SMILES | Therapeutic index SK-N-MC [1] | IC50 ([1]; 24 h) | IC50 ([1]; 48 h) | IC50 ([1]; 72 h) | IC50 ([2]; AsPC-1, 24 h) | IC50 ([2]; AsPC-1, 48 h) | IC50 ([2]; AsPC-1, 72 h) | Therapeutic index AsPC-1 [2] | DCF fluorescence (H2DCF oxidation) after addition of CuCl2 [3] | Observed pseudo first order rate constant kobs, FeCl3 [4] | t½, transmetallation with FeCl3 ([4]; FeCl3 in DMSO) |
| --- | --- | --- | --- | --- | --- | --- | --- | --- | --- | --- | --- |
| CCN(C)C([S-])=NN=C(c1ccccn1)c1ccccn1.[Cl-].[Pd+2] [[Pd(Dp4e4mT)Cl]] | 3 | > 25000 nM | 661 ± 62 nM | 285 ± 121 nM | > 25000 nM | 1340 ± 74 nM | 262 ± 78 nM | 3 | approximately half | No reaction | – |
| CCN(C)C([S-])=NN=C(c1ccccn1)c1ccccn1.CCN(C)C([S-])=NN=C(c1ccccn1)c1ccccn1.[Zn+2] [[Zn(Dp4e4mT)2]] | 187 | – | – | – | – | – | – | 125 | markedly and significantly (p < 0.0001–0.001) increased DCF fluorescence | 0.00891 s⁻¹ | ~1 min |
